Key:
[1] = system: Human embryonic kidney-293 (HEK-293); test: MTT assay for cytotoxicity; format: cell-based; conditions: for IC50: Homo sapiens, HEK293
Method: (§1) The MTT assay was performed according to Annex C, ISO 10993-5 [56] as in [116]. The panel of non-tumorigenic cell lines consisted of one murine (CCL-1 fibroblasts, which are recommended as a standard for cytotoxicity evaluation in Annex C of ISO 10993-5 [56]) and four human cell lines—HaCaT (immortalized epidermal keratinocytes), HGF (gingival fibroblasts), HEK-293 (embryonic cells from kidney epithelium), and HEPG2 (hepatoblastoma). Although technically a cancer cell line, HEPG2 is non-tumorigenic and retains many hepatocyte-related features in its proteome and a high degree of morphological and functional differentiation, also being a stage one hepatoblastoma.
(§2) CCL-1 was purchased from ATCC and HaCaT and HGF were bought from CLS Cell Lines Service (GmbH, Eppelheim, Germany). HEK-293 and HEPG2 were obtained from DSMZ. The cell culture medium for HaCaT and HEPG2 was Dulbecco’s Modified Eagle Medium (DMEM) with 4.5 g/L glucose (DMEM-HA). For HGF it was DMEM/F-12 (DMEM-12-A, a 1:1 mixture of DMEM and Ham’s F-12 medium). The cell medium for CCL-1 and HEK-293 was Eagle’s Minimum Essential Medium (MEM) (MEM-A). Ten percent heat-inactivated fetal bovine serum (FBS) was added to all media but to the one for the CCL-1 cells, to which 10% heat-inactivated horse serum was added. All media were supplemented with 2 mM L-glutamine and Penicillin/Streptomycin (Pen/Strep, 100×). The cell culture media, sera, and additives were from Capricorn Scientific (Düsseldorf, Germany).
(§3) GraphPad Prism software version 9 (GraphPad Software Inc., San Diego, CA, USA) was used to calculate the IC50 values from the MTT assays as in [116], as well as the MTC values, and the ELISA standard curves. The MTC values are, according to ISO 10993-5, the maximum concentration at which at least 70% of the cells are viable (nonlin fit, range).

[2] = system: Human gingival fibroblasts (HGF); test: MTT assay for cytotoxicity; format: cell-based; conditions: for IC50: Homo sapiens, Fibroblast
Method: as §1, §2, §3

HEK-293 cells = test: Colony-forming unit assay; format: cell-based, human; conditions: for Percentage of colonies, HEK-293: untreated control = 100%
Method: (§4) The CFU was also performed according to ISO 10993-5 [56]. Briefly, the cell lines were seeded at a concentration like for the MTT assay in 6-well plates, treated with the chosen agents and left for a 48 h exposure. Then, the cells were trypsinized, and pre-calculated 20 to 100 µL from the cell suspension was added to a sterile Roswell Park Memorial Institute (RPMI) medium (RPMI-A, Capricorn Scientific), containing 20% of the respective cell culture medium for each cell line but with a final concentration of FBS and L-glutamine of 40–42% and 0.8–1.2 mM, respectively, 0.2% NaHCO3 (S6297, Merck Sigma-Aldrich, Saint Louis, MI, USA), and 0.8% methylcellulose (M0512, Merck Sigma-Aldrich) for viscosity. The viscous cell solution was vortexed for 10 s and dispensed in an equal number of cells per well in 6-well plates (1.2 mL per well) in triplicate for each concentration of treatment. HaCaT and HEK-293 were seeded at a concentration of 2500 cells per mL, CCL-1 and HEPG2—2000 cells per mL, and HGF—1000 cells per mL. The plates were incubated for 6 to 10 days, and when the colonies reached 20 to 50 cells per colony, 100 µL MTT salt solution was added to each well. After half an hour, the stained colonies were counted manually using a microscope.

CCL-1 cells = test: Colony-forming unit assay; format: cell-based, murine; conditions: for Percentage of colonies, CCL-1: untreated control = 100%
Method: as §4

tumor cell lines = conditions: ref [29]; cited from earlier work
[3] = at least 70% of cells viable, ISO 10993-5

For CC(C)=CCCC1(C)C(CC=C(C)C)CC2C(=O)C1(C(=O)C(C)C)C(=O)C(CC=C(C)C)=C2O (stereo not shown) [Olympiforin B], the IC50 ([1]; MTT assay) was 0.67 µg/mL, the IC50 ([1]; converted to µM) was 1.43 µM and the “Maximum tolerated concentration (MTC), HEK-293” value [1, 3] was 0.46 µg/mL. For the same compound, the IC50 ([2]; MTT assay) was 18 µg/mL, the IC50 ([2]; converted to µM) was 38.4 µM and the “Maximum tolerated concentration (MTC), HGF” value [2, 3] was 16.06 µg/mL. For the same compound, the “Colonies per well for HEK-293 cells” value (HEK-293 cells; 1/2 × IC50, 48 h exposure) was 102, the “Percentage of colonies, HEK-293” value (HEK-293 cells; 1/2 × IC50) was 97% and the “Colonies per well for HEK-293 cells” value (HEK-293 cells; 2 × IC50, 48 h exposure) was 80. The “Percentage of colonies, HEK-293” value (HEK-293 cells; 2 × IC50) was 77%, the “Colonies per well for HEK-293 cells” value (HEK-293 cells; IC50, 48 h exposure) was 99 and the “Percentage of colonies, HEK-293” value (HEK-293 cells; IC50) was 95%. For the same compound, the “Colonies per well for CCL-1 cells” value (CCL-1 cells; 1/2 × IC50, 48 h exposure) was 167, the “Percentage of colonies, CCL-1” value (CCL-1 cells; 1/2 × IC50) was 106% and the “Colonies per well for CCL-1 cells” value (CCL-1 cells; 2 × IC50, 48 h exposure) was 61. For the same compound, the “Percentage of colonies, CCL-1” value (CCL-1 cells; 2 × IC50) was 39%, the “Colonies per well for CCL-1 cells” value (CCL-1 cells; IC50, 48 h exposure) was 62 and the “Percentage of colonies, CCL-1” value (CCL-1 cells; IC50) was 40%. The IC50 (tumor cell lines) was 1300 nM.

Source: paper PMC12566971, “Polyprenylated Acylphloroglucinols from Hypericum rochelii and Hypericum olympicum—Cytotoxic Effects on Non-Tumorigenic Cell Lines and Antibacterial Potential” (Pharmaceuticals, 2025)
